Measured values reported in ChEMBL document CHEMBL5726876, “NHE3-binding compounds and methods for inhibiting phosphate transport” (2019).

Test: Cell-based activity under Prompt Conditions: Cell-based activity under Prompt Conditions. Rat or human NHE3-mediated Na+-dependent H+ antiport was measured using a modification of the pH sensitive dye method originally reported by Paradiso (PNAS USA. 81:7436-7440, 1984). Opossum kidney (OK) cells were obtained from the ATCC and propagated per their instructions. The rat NHE3 gene (GenBank M85300) or the human NHE3 gene (GenBank NM_004174.1) was introduced into OK cells via electroporation, and cells were seeded into 96 well plates and grown overnight. Medium was aspirated from the wells, cells were washed twice with NaCl-HEPES buffer (100 mM NaCl, 50 mM HEPES, 10 mM glucose, 5 mM KCl, 2 mM CaCl2, 1 mM MgCl2, pH 7.4), then incubated for 30 min at room temperature with NH4Cl-HEPES buffer (20 mM NH4Cl, 80 mM NaCl, 50 mM HEPES, 5 mM KCl, 2 mM CaCl2, 1 mM MgCl2, pH 7.4) containing 5 μM bis(acetoxymethyl) 3,3′-(3′,6′-bis(acetoxymethoxy)-5-((acetoxymethoxy)carbonyl)-3-oxo-3H-spiro[isobenzofuran-1,9′-xanthene]-2′,7′-diyl)dipropanoate (BCECF-AM).Cells were washed twice with Ammonium free, Na+-free HEPES (100 mM choline, 50 mM HEPES, 10 mM glucose, 5 mM KCl, 2 mM CaCl2, 1 mM MgCl2, pH 7.4) and incubated in the same buffer for 10 minutes at room temperature to lower intracellular pH. […] Initial rates were plotted as the average 2 or more replicates, and pIC50 values were estimated using GraphPad Prism.

Row | SMILES | IC50 [nM]
1 | C/C(=C\c1cc(F)c(Oc2ccc(S(=O)(=O)NCCOCCOCCOCCNC(=O)N3CCN(C(=O)NCCOCCOCCOCCNS(=O)(=O)c4ccc(Oc5c(F)cc(/C=C(\C)C(=O)N=C(N)N)cc5F)cc4)CC3)cc2)c(F)c1)C(=O)N=C(N)N | 20
2 | CN1Cc2c(Cl)cc(Cl)cc2[C@H](c2cccc(S(=O)(=O)NCCOCCOCCNC(=O)CCC(CCC(=O)NCCOCCOCCNS(=O)(=O)c3cccc([C@@H]4CN(C)Cc5c(Cl)cc(Cl)cc54)c3)(CCC(=O)NCCOCCOCCNS(=O)(=O)c3cccc([C@@H]4CN(C)Cc5c(Cl)cc(Cl)cc54)c3)NC(=O)Cc3nnn[nH]3)c2)C1 | 200
3 | O=C(NCCCCNC(=O)NCCOCCOCCNS(=O)(=O)c1ccc(O[C@H]2c3ccccc3C[C@@H]2N2CCCC2)cc1)NCCOCCOCCNS(=O)(=O)c1ccc(O[C@H]2c3ccccc3C[C@@H]2N2CCCC2)cc1 | 2.51
4 | C[C@@H](O)[C@H](NC(=O)NC(CCC(=O)NCCOCCOCCNS(=O)(=O)c1cccc([C@@H]2CN(C)Cc3c(Cl)cc(Cl)cc32)c1)(CCC(=O)NCCOCCOCCNS(=O)(=O)c1cccc([C@@H]2CN(C)Cc3c(Cl)cc(Cl)cc32)c1)CCC(=O)NCCOCCOCCNS(=O)(=O)c1cccc([C@@H]2CN(C)Cc3c(Cl)cc(Cl)cc32)c1)C(N)=O | 63.1
5 | CC(C)(C(=O)NCCOCCOCCOCCNS(=O)(=O)c1ccc(O[C@H]2c3ccccc3C[C@@H]2N2CCCCC2)cc1)C(=O)NCCOCCOCCOCCNS(=O)(=O)c1ccc(O[C@H]2c3ccccc3C[C@@H]2N2CCCCC2)cc1 | 2
6 | NCCOCCOCCNS(=O)(=O)c1ccc(O[C@H]2c3ccccc3C[C@@H]2N2CCCCC2)cc1 | 447
7 | O=C(NCCCCNC(=O)NCCOCCOCCNC(=O)Nc1cccc(O[C@H]2c3ccccc3C[C@@H]2N2CCCCC2)c1)NCCOCCOCCNC(=O)Nc1cccc(O[C@H]2c3ccccc3C[C@@H]2N2CCCCC2)c1 | < 10000
8 | COCCNC(=O)CN(C)CC(=O)NCCOCCOCCNC(=O)NCCOCCOCCOCCOc1cccc(-c2nc(NC(=N)N)nc3ccc(Cl)cc23)c1 | 31.6
9 | CN1Cc2c(Cl)cc(Cl)cc2[C@H](c2cccc(S(=O)(=O)NCCOCCOCCNC(=O)Nc3ccc(NC(=O)NCCOCCOCCNS(=O)(=O)c4cccc([C@@H]5CN(C)Cc6c(Cl)cc(Cl)cc65)c4)cc3)c2)C1 | 2.51
10 | COCCNS(=O)(=O)c1cccc(C2CN(C)Cc3c(Cl)cc(Cl)cc32)c1 (configuration not stated) | 200
11 | CN1Cc2c(Cl)cc(Cl)cc2[C@H](c2cccc(S(=O)(=O)NCCOCCOCCNC(=O)NCCN(CCNC(=O)NCCOCCOCCNS(=O)(=O)c3cccc([C@@H]4CN(C)Cc5c(Cl)cc(Cl)cc54)c3)CCNC(=O)NCCOCCOCCNS(=O)(=O)c3cccc([C@@H]4CN(C)Cc5c(Cl)cc(Cl)cc54)c3)c2)C1 | 2510
12 | CN1Cc2c(Cl)cc(Cl)cc2[C@H](c2cccc(S(=O)(=O)NCCOCCOCCOCCNC(=O)CN3CCN(CC(=O)NCCOCCOCCOCCNS(=O)(=O)c4cccc([C@@H]5CN(C)Cc6c(Cl)cc(Cl)cc65)c4)CCN(CC(=O)NCCOCCOCCOCCNS(=O)(=O)c4cccc([C@@H]5CN(C)Cc6c(Cl)cc(Cl)cc65)c4)CCN(CC(=O)NCCOCCOCCOCCNS(=O)(=O)c4cccc([C@@H]5CN(C)Cc6c(Cl)cc(Cl)cc65)c4)CC3)c2)C1 | 501
13 | CN1Cc2c(Cl)cc(Cl)cc2[C@H](c2cccc(S(=O)(=O)NCCOCCOCCNC(=O)CCC(CCC(=O)NCCOCCOCCNS(=O)(=O)c3cccc([C@@H]4CN(C)Cc5c(Cl)cc(Cl)cc54)c3)(CCC(=O)NCCOCCOCCNS(=O)(=O)c3cccc([C@@H]4CCN(C)c5c(Cl)cc(Cl)cc54)c3)NC(=O)[C@H]3CCCC[C@@H]3C(=O)O)c2)C1 | 126
14 | CCOCCOCCC(=O)N(CCNC(=O)NCCOCCOCCNS(=O)(=O)c1cccc([C@@H]2CN(C)Cc3c(Cl)cc(Cl)cc32)c1)CCNC(=O)NCCOCCOCCNS(=O)(=O)c1cccc([C@@H]2CN(C)Cc3c(Cl)cc(Cl)cc32)c1 | 158
15 | CCOCCOCCOCCOCCOCCC(=O)N(CCNC(=O)NCCOCCOCCNS(=O)(=O)c1cccc([C@@H]2CN(C)Cc3c(Cl)cc(Cl)cc32)c1)CCNC(=O)NCCOCCOCCNS(=O)(=O)c1cccc([C@@H]2CN(C)Cc3c(Cl)cc(Cl)cc32)c1 | 251
16 | CCOCCOCCOCCNC(=O)CN(CCN(CC(=O)O)CC(=O)NCCOCCOCCOCCNS(=O)(=O)c1ccc(O[C@H]2c3ccccc3C[C@@H]2N2CCCCC2)cc1)CC(=O)O | 22.4
17 | CC(O)C(CCC(=O)NCCOCCOCCNS(=O)(=O)c1cccc([C@@H]2CN(C)Cc3c(Cl)cc(Cl)cc32)c1)(CCC(=O)NCCOCCOCCNS(=O)(=O)c1cccc([C@@H]2CN(C)Cc3c(Cl)cc(Cl)cc32)c1)CCC(=O)NCCOCCOCCNS(=O)(=O)c1cccc([C@@H]2CN(C)Cc3c(Cl)cc(Cl)cc32)c1 (some centres not stated) | 25.1
18 | CN1Cc2c(Cl)cc(Cl)cc2[C@H](c2cccc(S(=O)(=O)NCCOCCOCCNC(=O)CCN(CCC(=O)NCCOCCOCCNS(=O)(=O)c3cccc([C@@H]4CN(C)Cc5c(Cl)cc(Cl)cc54)c3)CCC(=O)NCCOCCOCCNS(=O)(=O)c3cccc([C@@H]4CN(C)Cc5c(Cl)cc(Cl)cc54)c3)c2)C1 | 3160
19 | CN1Cc2c(Cl)cc(Cl)cc2[C@H](c2cccc(S(=O)(=O)NCCOCCOCCNC(=O)CCC(CCC(=O)NCCOCCOCCNS(=O)(=O)c3cccc([C@@H]4CN(C)Cc5c(Cl)cc(Cl)cc54)c3)(CCC(=O)NCCOCCOCCNS(=O)(=O)c3cccc([C@@H]4CN(C)Cc5c(Cl)cc(Cl)cc54)c3)NC(=O)CCC(=O)O)c2)C1 | 31.6

Row | SMILES | IC50 [nM]
20 | CC(C)CCC[C@@H](C)[C@H]1CC[C@H]2[C@@H]3CC=C4C[C@@H](OC(=O)NCCOCCOCCOCCNS(=O)(=O)c5cccc([C@@H]6CN(C)Cc7c(Cl)cc(Cl)cc76)c5)CC[C@]4(C)[C@H]3CC[C@]12C | < 10000
21 | CN(CC(=O)NCCOCCOCCNS(=O)(=O)c1ccc(O[C@H]2c3ccccc3C[C@@H]2N2CCCCC2)cc1)CC(=O)NCCOCCOCCNS(=O)(=O)c1ccc(O[C@H]2c3ccccc3C[C@@H]2N2CCCCC2)cc1 | 35.5
22 | CN1Cc2c(Cl)cc(Cl)cc2[C@H](c2cccc(S(=O)(=O)NCCOCCOCCNC(=O)CCC(CCC(=O)NCCOCCOCCNS(=O)(=O)c3cccc([C@@H]4CN(C)Cc5c(Cl)cc(Cl)cc54)c3)(CCC(=O)NCCOCCOCCNS(=O)(=O)c3cccc([C@@H]4CN(C)Cc5c(Cl)cc(Cl)cc54)c3)NS(C)(=O)=O)c2)C1 | 631
23 | CN1Cc2c(Cl)cc(Cl)cc2[C@H](c2cccc(S(=O)(=O)NCCOCCOCCNC(=O)COCC(=O)NCCOCCOCCNS(=O)(=O)c3ccc(O[C@H]4c5ccccc5C[C@@H]4N4CCCCC4)cc3)c2)C1 | 25.1
24 | CN(CCN(CC(=O)O)CC(=O)NCCOCCOCCNC(=O)NCCOCCOCCOCCOc1ccc(-c2nc(NC(=N)N)nc3ccc(Cl)cc23)cc1)CC(=O)O | 10
25 | CCCCCCCCCCC(=O)NC(CCC(=O)NCCOCCOCCNS(=O)(=O)c1cccc([C@@H]2CN(C)Cc3c(Cl)cc(Cl)cc32)c1)(CCC(=O)NCCOCCOCCNS(=O)(=O)c1cccc([C@@H]2CN(C)Cc3c(Cl)cc(Cl)cc32)c1)CCC(=O)NCCOCCOCCNS(=O)(=O)c1cccc([C@@H]2CN(C)Cc3c(Cl)cc(Cl)cc32)c1 | < 10000
26 | CN(C)[C@H]1Cc2c(F)cc(Cl)cc2[C@@H]1Oc1ccc(S(=O)(=O)NCCOCCOCCNC(=O)NCCCCNC(=O)NCCOCCOCCNS(=O)(=O)c2ccc(O[C@H]3c4cc(Cl)cc(F)c4C[C@@H]3N(C)C)cc2)cc1 | < 10000
27 | CCOCCOCCOCCOCCC(=O)NCCOCCOCCOCCNS(=O)(=O)c1ccc(O[C@H]2c3ccccc3C[C@@H]2N2CCCCC2)cc1 | 35.5
28 | NCCOCCOCCOc1ccc(-c2nc(N=C(N)N)nc3ccc(Cl)cc23)cc1 | 112
29 | N=C(N)Nc1nc(-c2ccc(OCCOCCOCCOCCN)cc2)c2cc(Cl)ccc2n1 | 31.6
30 | CN1Cc2c(Cl)cc(Cl)cc2[C@H](c2cccc(NC(=O)[C@H](O)[C@@H](O)[C@H](O)[C@H](O)CO)c2)C1 | 25.1
31 | C=CC(=O)NCCOCCOCCOCCNS(=O)(=O)c1cccc([C@@H]2CN(C)Cc3c(Cl)cc(Cl)cc32)c1 | 200
32 | CN1Cc2c(Cl)cc(Cl)cc2[C@H](c2cccc(S(=O)(=O)NCCOCCOCCN(C)C(=O)CCC(CCC(=O)N(C)CCOCCOCCNS(=O)(=O)c3cccc([C@@H]4CN(C)Cc5c(Cl)cc(Cl)cc54)c3)(CCC(=O)N(C)CCOCCOCCNS(=O)(=O)c3cccc([C@@H]4CN(C)Cc5c(Cl)cc(Cl)cc54)c3)NC(=O)COCC(=O)O)c2)C1 | 20
33 | CN1Cc2c(Cl)cc(Cl)cc2[C@H](c2cccc(S(=O)(=O)NCCOCCOCCNC(=O)CN(CCOCCOCCN(CC(=O)NCCOCCOCCNS(=O)(=O)c3cccc([C@@H]4CN(C)Cc5c(Cl)cc(Cl)cc54)c3)CC(=O)NCCOCCOCCNS(=O)(=O)c3cccc([C@@H]4CN(C)Cc5c(Cl)cc(Cl)cc54)c3)CC(=O)NCCOCCOCCNS(=O)(=O)c3cccc([C@@H]4CN(C)Cc5c(Cl)cc(Cl)cc54)c3)c2)C1 | 1580
34 | CCCCCCCCOc1ccc(CNCCOCCOCCOCCNS(=O)(=O)c2cccc([C@@H]3CN(C)Cc4c(Cl)cc(Cl)cc43)c2)cc1 | < 10000
35 | CN1Cc2c(Cl)cc(Cl)cc2[C@H](c2cccc(S(=O)(=O)NCCOCCOCCNC(=O)CCC(N)(CCC(=O)NCCOCCOCCNS(=O)(=O)c3cccc([C@@H]4CN(C)Cc5c(Cl)cc(Cl)cc54)c3)CCC(=O)NCCOCCOCCNS(=O)(=O)c3cccc([C@@H]4CN(C)Cc5c(Cl)cc(Cl)cc54)c3)c2)C1 | 85.1
36 | CN1Cc2c(Cl)cc(Cl)cc2[C@H](c2cccc(S(=O)(=O)NCCOCCOCCNC(=O)NCCN(CCNC(=O)NCCOCCOCCNS(=O)(=O)c3cccc([C@@H]4CN(C)Cc5c(Cl)cc(Cl)cc54)c3)C(=O)CCCCCCCCCCC(=O)N(CCNC(=O)NCCOCCOCCNS(=O)(=O)c3cccc([C@@H]4CN(C)Cc5c(Cl)cc(Cl)cc54)c3)CCNC(=O)NCCOCCOCCNS(=O)(=O)c3cccc([C@@H]4CN(C)Cc5c(Cl)cc(Cl)cc54)c3)c2)C1 | < 10000
37 | C/C(=C\c1cc(F)c(Oc2ccc(S(=O)(=O)NCCOCCOCCOCCNC(=O)NCCCCNC(=O)NCCOCCOCCOCCNS(=O)(=O)c3ccc(Oc4c(F)cc(/C=C(\C)C(=O)N=C(N)N)cc4F)cc3)cc2)c(F)c1)C(=O)N=C(N)N | 31.6
